The source of these data is patent US20100197616A1, “Proliferation inhibitor of helicobacter pylori including alpha-n-acetyl-glucosaminyl bond-containing monosaccharide derivatives” (THE NOGUCHI INSTITUTE, priority 2007, published 2010).

Broadly, the inhibition is how much of the control response was suppressed. Higher therefore signals a response far below the control.

Data set [1] in a line: Decomposition in culture mediums and the stomach. Conditions: within the culture mediums and the stomach.
The test system of the next data set is H. pylori (ATCC 43504). Nature of the data set: H. pylori-proliferation inhibitory effect (OD 600 nm versus negative control). The class given is cell-based, Helicobacter pylori. On the procedure: The effect of GlcNAc alpha-O-Et on H. pylori was confirmed according to the following procedures. Bacterial cells of H. pylori (ATCC 43504) stored in a brucella broth culture medium frozen at −80° C. were cultured in the same culture medium (3 mL) supplemented with 10% equine serum at 35° C. in the presence of 15% CO2 for 40 hours according to the shaking culture technique, the movement of bacterial cells was observed under a microscope and non-coccoid type bacterial cells of H. pylori were recovered. The culture medium was inspected for the OD values at 600 nm, followed by the dilution thereof with Muller-Hinton culture medium supplemented with 5.5% equine serum such that the number of bacterial cells present therein was equal to 4×10^7, and 3 mL thereof in total was cultured at 35° C. in the presence of 15% CO2 for 24 hours according to the shaking culture technique, followed by the confirmation by a microscope to thus give an H. pylori-containing culture medium (bacterial cell density: 2×10^7/mL) used in the test for the confirmation of the effect of the foregoing compound. On the other hand, there were prepared Muller-Hinton culture mediums (free of any bacterial cell of H. pylori) each containing 902.6 μM to 14.4 mM of the foregoing GlcNAc alpha-O-Et and supplemented with 5% equine serum, each of the resulting culture mediums was added to the foregoing H. pylori-containing culture medium in a mixing ratio of 1:1 (by volume) (total volume: 100 μL each; on a 96-well plate), followed by the mixing thereof and the subsequent cultivation at 35° C. in the presence of 15% CO2 for 96 hours. After the cultivation thereof over a predetermined period of time, the bacterial cell density thus proliferated was determined by the determination of the OD values at 600 nm, followed by the comparison of the result observed for the sample to which the candidate compound was added with that observed for the negative control free of any candidate compound (the control depicted in FIG. 1) to thus evaluate the proliferation inhibitory effect of the compound. In this respect, 1 U herein means 2.9 μmol/mL. The effect of GlcNAc alpha-cholestanol on H. pylori was confirmed according to the following procedures. Bacterial cells of H. pylori (ATCC 43504) stored in a brucella broth culture medium frozen at −80° C. were cultured in the same culture medium (3 mL) supplemented with 10% equine serum at 35° C. in the presence of 15% CO2 for 40 hours according to the shaking culture technique, the movement or behavior of bacterial cells was observed under a microscope and non-coccoid type bacterial cells of H. pylori were recovered. […]

Regarding `CCO[C@H]1OC(CO)[C@@H](O)[C@H](O)C1NC(C)=O` (stereo partly drawn) [Compound 1, Ethoxy 2-acetamide-2-deoxy-N-acetyl-alpha-D-glucosaminide], the “decomposition (stability)” value in data set [1] is “never decomposed”. Further, the “proliferation ability of H. pylori” value in the data set with H. pylori (ATCC 43504) (culture medium containing not less than 1.8 mM) is “not more than 50%”. Further, in the data set with H. pylori (ATCC 43504) (culture medium containing not less than 7.2 mM), the “inhibition of the proliferation of H. pylori” value was “completely inhibit”. Moreover, the “H. pylori proliferation inhibited” value with H. pylori (ATCC 43504) (not less than 625 mU/mL (1.8 mM), FIG. 1, cultivation up to 96 hours) is “not less than 50%”.

`CC(=O)NC1[C@@H](O[C@H]2CC[C@@]3(C)C(CCC4C3CC[C@@]3(C)C4CC[C@@H]3[C@H](C)CCCC(C)C)C2)OC(CO)[C@@H](O)[C@@H]1O` (stereo partly drawn) [Compound 2, 3-beta-Cholestanyl-2-Acetamide-2-Deoxy-N-Acetyl-alpha-D-Glucosaminide] showed an inhibition at 180 µM with H. pylori (ATCC 43504) (Helicobacter pylori, ATCC43504, at least 62.5 mU/mL (180 μM, nominal, insoluble fraction filtered off), within 1.5 to 2 days, FIG. 2) of 40 to 50%.
